Non-standard residues stand in square brackets, D forms with d. No end group written: not given here. β3hY = N[C@H](CC(=O)O)Cc1ccc(O)cc1; β3hK = NCCCC[C@H](N)CC(=O)O
Legend:
HLA DR2 = target: T1, HLA DR2 (Homo sapiens, UniProt P01903+P01911); experiment: Inhibition of binding of biotinylated MBP (85-99) to HLA DR2; conditions: 5 μM competitor, 0.5 μM biotinylated MBP (85-99); FIG. 3
T1 construct: endogenous in cells; host or cells: MGAR lymphoblastoid B cell line (IHWG, Seattle)
Protocol: HLA DR2 molecules were affinity purified from MGAR (a lymphoblastoid B cell line expressing HLA DR2 obtained from IHWG, Seattle, Wash. —USA) cell line. Cells were cultured in RPMI 1640 supplemented with 10% FBS, 2 mM glutamine, 50 U/ml penicillin and 50 μg/ml streptomycin. The anti-DR antibody L243 was purchased from Santacruz Biotech.
HLA DR2 was purified to a purity of 90-95% by immunoaffinity purification. Briefly, MGAR cells were detergent solubilized to prepare the membrane fraction which was passed sequentially through sepharose CL-6B, normal mouse serum-affinity-gel, Protein A sepharose CL-4B and L243-protein A sepharose-CL-4B at a flow rate of around 10-11 ml/h. The final eluate was dialyzed against 0.1% deoxycholate, 10 mM Tris-HCl (pH 8.0) and concentrated using centricon concentrators from Millipore. Protein concentration was determined using bicinchoninic acid (BCA) assay (Sigma). The obtained protein fraction was also run on SDS-PAGE gel to confirm identity and purity.
Copolymers (GA, J91, J92, S101 to S109) and peptide analogs (S1-S82) at a final concentration of 5 μM were coincubated with biotinylated MBP (85-99; purchased from Bioconcept Labs Pvt. Ltd. India) at a final concentration of 0.5 μM and HLA DR2 (0.5 μg/sample) molecules for 40 h at 37° C. and transferred to a 96-well microtiter assay plates coated with 1 μg/well purified L243 mAb. Coating of microtiter plates was performed with 100 μl of L243 mAb in PBS for 18 h at 4° C. […] 3,3′,5,5′-tetramethylbenzidine (TMB, substrate for […]) was added to each well and absorbance at 410 nm was recorded on an ELISA reader (TECAN infinite M200).
Ability of analogs viz. […] Most of the analogs designed herein viz.
β^3-homo amino acid containing copolymers viz. […] Copolymers containing β^3-homo amino acids viz.

[1] = tested on: relapsing remitting EAE in SJL/J mice; experiment: Prophylactic (pre-treatment) efficacy in relapsing remitting EAE; format: in vivo; conditions: pre-treatment 0.5 mg in IFA; FIG. 2i
Protocol: (§1) To induce RR EAE or chronic progressive EAE, SJL/J or C57BL6/J mice were immunized subcutaneously with 0.2 mg of MBP (85-109) or 0.1 mg MOG (35-55) emulsified in CFA and 200 ng of pertussis toxin was injected intraperitoneally on day 0 and day 2 so as to permeablize the blood brain barrier. All the animals in various experimental groups were scored daily for clinical disability on a scale of 0-6 where 0=no neurological symptoms, 1=limp tail, 2=weakness of hind limbs or ataxia, 3=incomplete paralysis of hind limbs, 4=complete paralysis of hind limbs, 5=complete paralysis of all four limbs, 6=dead. Diseased animals were provided easy access to food and water.

[2] = tested on: SJL/J mice exhibiting MBP (85-109) induced relapsing remitting form of EAE; experiment: Therapeutic activity in MBP (85-109) induced relapsing remitting EAE, treatment from day 11; format: in vivo; conditions: for Therapeutic activity in comparison to GA (Therapeutic activity (Analogs) − Therapeutic activity GA) / Therapeutic activity in comparison to J5 (Therapeutic activity (Analogs) − Therapeutic activity (J5)) / Therapeutic activity = % reduction in cumulative clinical disability score: SJL/J mice, RR EAE; for Therapeutic activity in comparison to GA (Therapeutic activity (Analogs) − Therapeutic activity GA) / Therapeutic activity in comparison to J5 (Therapeutic activity (Analogs) − Therapeutic activity (J5)): 0.1 mg daily for two weeks; for Therapeutic activity = % reduction in cumulative clinical disability score: synthetic peptides, 0.1 mg daily for two weeks from day 11 post-immunization
Protocol: SJL/J and C57BL6/J mice procured from Jackson's laboratory (Bar Harbor, Me.) were maintained under standard housing conditions in the central animal facility at NII as per institutional ethical committee guidelines. 8-10 week old female SJL/J mice were used throughout the study.
as §1
GA, J91, J92, S101, S102, S103 for two weeks and scored for clinical disability.

spleenocytes = experiment: Th1/Th2 cytokine levels in culture supernates of spleenocytes from treatment groups; format: cell-based, mice; conditions: spleenocytes at the end of four weeks; FIG. 4
Protocol: Levels of various cytokines in culture supernates were determined by sandwich ELISA using multiplex cytokine ELISA kit (Millipore). Briefly, 100 μl of cell culture supernates from various groups were incubated with antibody (against various pro and anti-inflammatory cytokines) coated fluorescent polystyrene beads in 96 well microtiter plates, stained with PE-conjugated secondary antibody, provided in the kit and samples were acquired on […] (Bio-rad).
Effect of a group of analogs comprising analogs viz.
Effect of β^3-homo amino acid containing copolymers viz S101, S102 and S103 on Th1/Th2 cytokine balance was studied in comparison to other copolymers viz. GA, J91, J92, for which culture supernates of spleenocytes grown in the presence of various copolymers, were assayed using ELISA to determine the levels of various cytokines. […] Most noteworthy change was in the levels of IL-2 in the S101, S102 and S103 treated groups, where the levels were brought down by 60-70%.

T1 sequence (P01903 26-254): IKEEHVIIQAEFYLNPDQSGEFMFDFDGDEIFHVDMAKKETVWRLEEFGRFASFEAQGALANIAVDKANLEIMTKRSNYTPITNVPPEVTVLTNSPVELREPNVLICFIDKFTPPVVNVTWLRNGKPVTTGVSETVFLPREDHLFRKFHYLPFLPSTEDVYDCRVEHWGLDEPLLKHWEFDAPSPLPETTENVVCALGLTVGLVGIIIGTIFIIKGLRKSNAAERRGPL
T1 sequence (P01911 30-266): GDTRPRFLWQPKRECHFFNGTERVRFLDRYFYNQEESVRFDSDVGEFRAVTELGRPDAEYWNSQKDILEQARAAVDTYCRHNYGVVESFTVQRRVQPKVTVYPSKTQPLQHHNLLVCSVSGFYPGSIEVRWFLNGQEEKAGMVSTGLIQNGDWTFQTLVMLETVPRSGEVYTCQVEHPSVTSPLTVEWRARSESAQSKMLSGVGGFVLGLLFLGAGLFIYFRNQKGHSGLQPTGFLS

| Substance | inhibition of binding of biotinylated MBP (85-99) to HLA DR2 (HLA DR2) [%] | effect on clinical onset of disease [1] | Therapeutic activity in comparison to GA (Therapeutic activity (Analogs) − Therapeutic activity GA) [2] [%] | Therapeutic activity in comparison to J5 (Therapeutic activity (Analogs) − Therapeutic activity (J5)) [2] [%] | Therapeutic activity = % reduction in cumulative clinical disability score [2] [%] | change in IL-4 levels (spleenocytes) | delay of clinical onset of disease [1] [days] | efficacy relative to GA ([2]; both treatment and pre-treatment scenarios) |
| --- | --- | --- | --- | --- | --- | --- | --- | --- |
| FPFNVPTNIVKVERH (Peptide analog) [scrambled MBP (85-99)] | ~15 |  |  |  |  |  |  |  |
| EKPKVEAYKAAAAPA [Analog J5, reference compound] |  | no effect on clinical onset of disease | 3.957 | 0 | 35.29 | only a marginal increase |  |  |
| Eβ^3Kβ^3Pβ^3Kβ^3Vβ^3Eβ^3Aβ^3Yβ^3Kβ^3Aβ^3Aβ^3Aβ^3Aβ^3Pβ^3Aβ^3 [Analog S15] |  |  | 30.91 | 26.95 | 62.25 |  | ~3 | approximately two times better |
| EKPKVEβAβYβKβAβAβAβAβPAβ [Analog S49] |  |  | 18.93 | 14.97 | 50.27 |  |  |  |
| VEAYKβ^3 (VEAY[β3hK]) [Analog S35] |  |  | −6.952 | −10.9091 | 24.39 |  |  |  |
| Kβ^3Vβ^3EAYβ^3Kβ^3 [Analog S34] |  |  | 25.03 | 21.07 | 56.36 |  |  |  |
| KVEAYKAAAA (Peptide analog) [Analog J5a, reference compound] |  |  | −2.995 | −6.952 | 28.34 |  |  |  |
| KVEAYKAAAβAβ [Analog S56] |  |  | −0.4278 | −4.385 | 30.91 |  |  |  |
| EKPKVEβ^3Aβ^3Yβ^3Kβ^3Aβ^3Aβ^3Aβ^3Aβ^3Pβ^3Aβ^3 [Analog S10] |  |  | 19.89 | 15.94 | 51.23 |  |  |  |
| VβEAYβKβ [Analog S78] |  |  | −11.9037 | −15.861 | 19.43 |  |  |  |
| EKPKVEAYKAAAβ^3Aβ^3Pβ^3Aβ^3 [Analog S4] |  |  | 4.492 | 0.5348 | 35.83 |  |  |  |
| EKPKVEAβYβKβAβAβAβAβPAβ [Analog S48] |  |  | 22.89 | 18.93 | 54.2246 |  |  |  |
| KVβ^3Eβ^3Aβ^3Yβ^3Kβ^3 [Analog S32] |  |  | 11.23 | 7.273 | 42.57 |  |  |  |
| KVEAβYβKβ [Analog S68] |  |  | −5.134 | −9.091 | 26.2 |  |  |  |
| KVEAβYβKβAβAβAβAβ [Analog S61] |  |  | 8.6631 | 4.706 | 40 |  |  |  |
| EKPKVEAYβ^3Kβ^3Aβ^3Aβ^3Aβ^3Aβ^3Pβ^3Aβ^3 [Analog S8] |  |  | 23.85 | 19.89 | 55.19 |  |  |  |
| KβVβEβAβYβKβAβAβAβAβ [Analog S64] |  |  | −7.38 | −11.3369 | 23.96 |  |  |  |
| EKPKVEAYKAAAAβ^3Pβ^3Aβ^3 [Analog S3] |  |  | 5.027 | 1.07 | 36.36 |  |  |  |
| EKPKβ^3Vβ^3Eβ^3Aβ^3Yβ^3Kβ^3Aβ^3Aβ^3Aβ^3Aβ^3Pβ^3Aβ^3 [Analog S12] |  |  | 25.88 | 21.93 | 57.22 |  |  |  |
| VEAYβ^3Kβ^3 (VEA[β3hY][β3hK]) [Analog S36] |  |  | −2.46 | −6.417 | 28.88 |  |  |  |
| KβVβEAYβKβ [Analog S72] |  |  | −15.9358 | −19.8931 | 15.4 |  |  |  |
